Reference: patent publication EP0412158A1, “ONCOSTATIC DRUG” (priority 1987, dated 1988)

What was measured:
[1] = tested on: MM-46 breast cancer; type: in vivo, female C3H/He mice; conditions: 5 mg/kg, ip × 9
[2] = MM-46 breast cancer, evaluation by size of tumor (Examples 21 to 24); type: in vivo, female C3H/He mice; conditions: mouse, in vivo, ip; read-out: largest allowable dose
[3] = tested on: MM-46 breast cancer; assay: as above; type: in vivo, female C3H/He mice; conditions: 5 mg/kg
[4] = tested on: methyl cholanthrene A tumor; assay: Methyl cholanthrene A tumor, evaluation by weight of tumor (Examples 13 to 16); type: in vivo, female BALB/C mice; conditions: 5 mg/kg
[5] = tested on: methyl cholanthrene A; assay: Methyl cholanthrene A tumor, evaluation by extension of period of survival (Examples 7 to 11); type: in vivo, female BALB/C mice; conditions: 5 mg/kg; for Average number of days of survival / Number of toxically killed mice/total number of mice / T/control: ip×9; for Change in body weight: ip×9, D1~D9; for T/control: days of survival
Method: The aforementioned compounds, A to D, were severally dissolved in distilled water to obtain aqueous solutions containing the compounds in a fixed concentration of 10 mg/ml. To the female BALB/C mice (five weeks old) to which methyl cholanthrene A had been transplanted in a ratio of 1.0 x 10^5 cells per mouse, […] to determine the mices' periods of survival. For comparison, mice to which no antineoplastic drug was administered and mice to which aminonitroso urea was administered were similarly tested.

[6] = tested on: methyl cholanthrene A; assay: Methyl cholanthrene A tumor, evaluation by elongation of period of survival (Examples 17 to 20); type: in vivo, female BALB/C mice; conditions: 5 mg/kg ×9
[7] = tested on: methyl cholanthrene A; assay: Methyl cholanthrene A tumor, evaluation by elongation of period of survival (Examples 31, 34 and 35); type: in vivo, female BALB/C mice
Method: The active compounds, M to 0, mentioned above were severally dissolved in distilled water to obtain aqueous solutions containing the compounds in a fixed concentration of 10 mg/ml. To be specific, to female BALB/C mice (five weeks old) to which methyl cholanthrene A had been transplanted in a ratio of 1.0 x 10^5 cells per mouse, […] for 9 consecutive days to determine the mice's periods of survival. For comparison, mice to which no aqueous solution was administered and mice to which aminonitrosourea was administered were similarly tested.

[8] = Antineoplastic activity against transplanted methyl cholanthrene A tumor, evaluation by size of tumor (Examples 1 to 6); type: in vivo, female BALB/C mice; conditions: mouse, in vivo, ip
Method: (§1) By dissolving alkylammonium salt of polymolybdic acid [NH3C3H7(iso)]s [Mo7O24] • 3H2O (Compound A) and other compounds (Compounds B to D) severally in distilled water, aqueous solutions containing the compounds in a fixed concentration of 10 mg/ml were obtained. These aqueous solutions were administered to female BALB/C mice (five weeks old) to which methyl cholanthrene A tumor had been transplanted to test the compounds for antineoplastic activity. To be specific, methyl cholanthrene A was transplanted to the mice in a ratio of 1.0 x 10^5 cells per mouse and the aqueous solutions were continuously administered to the mice by intraperitoneal injection ([…]) for nine days. On elapse of 14 days following the start of the administration, the tumors in the mice were measured. For comparison, mice to which no antineoplastic .drug was administered and mice to which aminonitroso urea was administered were tested by following the procedure described above.

[9] = tested on: methyl cholanthrene A tumor; assay: as above; type: in vivo, female BALB/C mice; conditions: 5 mg/kg, ip×9; for Change in body weight: body weight 13 days after transplantation; for T/control: tumor weight
Method: as §1

[10] = Methyl cholanthrene A tumor, evaluation by weight of tumor (Examples 13 to 16); type: in vivo, female BALB/C mice; conditions: mouse, in vivo, ip; read-out: largest allowable dose
Method: Compound E, an alkali metal salt of polymolybdic acid (Example 13), and other compounds (Compounds F to H) mentioned above were severally dissolved in distilled water to obtain aqueous solutions containing the compounds in a fixed concentration of 10 mg/ml. These aqueous solutions were administered to female BALB/C mice (five weeks old) to which methyl cholanthrene A tumor had been transplanted to test the compounds for antineoplastic activity. To be morespecific, the methyl cholanthrene A was transplanted to the mice in a ratio of 1.0 x 10^5 cells per mouse and the aqueous solution was continuously administered (at a dose of 100 mg/kg of body weight) for nine days by intraperitoneal injection. On elapse of 14 days after the stop of the administration, the tumors in the mice were weighed. For comparison, mice to which the aqeuous solution was not administered and the mice to which aminonitrosourea was administered were similarly tested.

[11] = Methyl cholanthrene A tumor, evaluation by size of tumor (Examples 31 to 33); type: in vivo, female BALB/C mice; conditions: mouse, in vivo, ip; read-out: largest allowable dose
Method: (§2) A heteropoly acid salt, Na5[IM06O24]•34H2O (Compound M), and other compounds (Compounds N and O ) were severally dissolved in distilled water to obtain aqueous solutions containing the salts in a fixed concentration of 10 mg/ml. To female BALB/C mice (five weeks old) to which methyl cholanthrene A tumor had been transplanted, the aqueous solutions were administered to test the compounds for antineoplastic activity. To be specific, the methyl cholanthrene A was transplanted to the mice at a ratio of 1.0 x 10^5 cells per mouse and the aqueous solutions were administered ([…]) for 9 consecutive days by intraperitoneal injection. On elapse of 14 and 21 days after the stop of the administration, the sizes of tumors in the mice were measured. For comparison, mice to which no aqueous solution was administered and mice to which aminonitrosourea was administered were similarly tested.

[12] = tested on: methyl cholanthrene A tumor; assay: as above; type: in vivo, female BALB/C mice
Method: as §2

For `Cc1ncc(CNC(=O)N(CCCl)N=O)c(N)n1` [reference compound], which “Average number of days of survival” value [1] is on record?
The value was 29.1±2.1(8) days.

What about the “Average weight of tumor after 14 days” value [1] of the same molecule?
The value was 1364.3 ± 200.0 mg.

And the “Ratio of elongation of life (5)” value [1]?
The value was 76.4.

And the MTD [2]?
The MTD was 5 mg/kg.

What about the “Average weight of tumor” value ([3]; ip × 9) of the same molecule?
The value was 1364.3 ± 200.0 mg.

And the “Number of tumorless mice /total number of mice” value ([3]; ip × 9)?
Its value is 0/8.

What about the T/control ([3]; ip×9, tumor weight) of the same molecule?
Its T/control is 0.473.

And the “Average weight of tumor” value ([4]; ip × 9)?
The value was 1151.1 ± 162.7 mg.

What about the “Number of tumorless mice /total number of mice” value ([4]; ip × 9) of the same molecule?
Its value is 0/8.

What about the T/control ([4]; ip×9, tumor weight) of the same molecule?
The T/control was 0.447.

What about the “Change in body weight” value ([4]; ip×9 D1-D9, body weight 13 days after tumor transplantation) of the same molecule?
Its value is “+1,58 g”.

And the “Average number of days of survival” value ([5]; No. 1)?
The value was 35.8 ± 1.4 days.

And the “Number of toxically killed mice/total number of mice” value ([5]; No. 1)?
Its value is 0/8.

What about the “Change in body weight” value ([5]; No. 1) of the same molecule?
Its value is “+1.58 g”.

And the T/control ([5]; No. 1)?
The T/control was 138.0.

What about the “Average number of days of survival” value ([5]; No. 2) of the same molecule?
The value was 28.0±3.1(9) days.

What about the “Number of toxically killed mice/total number of mice” value ([5]; No. 2) of the same molecule?
The value was 0/8.

What about the “Change in body weight” value ([5]; No. 2) of the same molecule?
The value was “+1.58 g”.

What about the T/control ([5]; No. 2) of the same molecule?
The T/control was 124.5.

What about the “Average number of days of survival” value [6] of the same molecule?
Its value is 28.0±3.1(9) days.

And the “Number of toxically killed mice/total number of mice” value [6]?
Its value is 0/8.

And the “Ratio of prolonging life” value [6]?
Its value is 24.4%.

And the “Average number of days of survival ±SE” value ([7]; 2.5 mg/kg, ip × 9 (D1~D9))?
The value was 31.13±1.14(8) days.

And the ILS ([7]; 2.5 mg/kg, ip × 9 (D1~D9))?
The ILS was 18%.

And the “Average number of days of survival ±SE” value ([7]; 7.5 mg/kg, ip × 9)?
Its value is 36.67±1.07(9) days.

What about the ILS ([7]; 7.5 mg/kg, ip × 9) of the same molecule?
Its ILS is 47.3%.

What about the “Number of mice of no tumor/total number of mice” value ([7]; 7.5 mg/kg, ip × 9, observed 60 days after transplantation) of the same molecule?
The value was 0/9.

And the MTD [8]?
Its MTD is 5 mg/kg.

And the “Average weight of tumor” value ([9]; No. 1)?
Its value is 1151.1 ± 162.7 mg.

And the “Number of tumorless mice /total number of mice” value ([9]; No. 1)?
Its value is 0/8.

And the “Change in body weight” value ([9]; No. 1)?
The value was “+1,58 (D1~D9) g”.

And the T/control ([9]; No. 1)?
The T/control was 0.430.

And the “Average weight of tumor” value ([9]; No. 3)?
Its value is 1151.1 ± 162.7 mg.

And the “Number of tumorless mice /total number of mice” value ([9]; No. 3)?
Its value is 0/8.

And the “Change in body weight” value ([9]; No. 3)?
The value was “+1,58 (D1~D9) g”.

What about the T/control ([9]; No. 3) of the same molecule?
The T/control was 0.430.

And the MTD [10]?
Its MTD is 5 mg/kg.

What about the MTD [11] of the same molecule?
Its MTD is 7.5 mg/kg.

What about the “Average weight of tumor after elapse of 14 days ± SE” value ([12]; 2.5 mg/kg, ip × 9 (D1~D9)) of the same molecule?
Its value is 347.9 ± 63.8 mg.

And the T/C ([12]; 2.5 mg/kg, ip × 9 (D1~D9), tumor weight after 14 days)?
Its T/C is 0.405.

What about the T/C ([12]; 7.5 mg/kg, ip × 9, tumor weight after 14 days) of the same molecule?
Its T/C is 0.367.

And the T/C ([12]; 7.5 mg/kg, ip × 9, tumor weight after 21 days)?
The T/C was 0.444.
